Data from PubChem BioAssay (NCI).
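1) Cells in 96-well plates. 2) Compound, 48 h, 5 concentrations. 3) Linear interpolation between surrounding doses. 4) Unreached endpoint = highest concentration. GI50 = concentration required for 50% inhibition of growth. TGI marks complete inhibition of growth.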

Tests used:
Experiment in all cases: DTP human tumour cell line panel, 48 h
[1] = test system: 786-0 renal
[2] = test system: A498 renal
[3] = test system: A549 NSCLC
[4] = test system: ACHN renal
[5] = test system: BT-549 breast
[6] = test system: CAKI-1 renal
[7] = test system: CCRF-CEM leukemia
[8] = test system: COLO 205 colon
[9] = test system: DU-145 prostate
[10] = test system: EKVX NSCLC
[11] = test system: HCC-2998 colon
[12] = test system: HCT-116 colon
[13] = test system: HCT-15 colon
[14] = test system: HL-60(TB) leukemia
[15] = test system: HOP-62 NSCLC
[16] = test system: HOP-92 NSCLC
[17] = test system: HS 578T breast
[18] = test system: HT29 colon
[19] = test system: IGROV1 ovarian
[20] = test system: K-562 leukemia
[21] = test system: KM12 colon
[22] = test system: LOX IMVI melanoma
[23] = test system: M14 melanoma
[24] = test system: MALME-3M melanoma
[25] = test system: MCF7 breast
[26] = test system: MDA-MB-231 breast
[27] = test system: MDA-MB-435
[28] = test system: MOLT-4 leukemia
[29] = test system: NCI-H226 lung
[30] = test system: NCI-H23 lung
[31] = test system: NCI-H460 lung
[32] = test system: NCI-H522 lung
[33] = test system: NCI/ADR-RES ovarian
[34] = test system: OVCAR-3 ovarian
[35] = test system: OVCAR-4 ovarian
[36] = test system: OVCAR-5 ovarian
[37] = test system: OVCAR-8 ovarian
[38] = test system: PC-3 prostate
[39] = test system: RPMI-8226 leukemia
[40] = test system: RXF 393 renal
[41] = test system: SF-268 CNS
[42] = test system: SF-295 CNS
[43] = test system: SF-539 CNS
[44] = test system: SK-MEL-2 melanoma
[45] = test system: SK-MEL-28 melanoma
[46] = test system: SK-MEL-5 melanoma
[47] = test system: SK-OV-3 ovarian
[48] = test system: SN12C renal
[49] = test system: SNB-19 CNS
[50] = test system: SNB-75 CNS
[51] = test system: SR leukemia
[52] = test system: SW-620 colon
[53] = test system: T-47D breast
[54] = test system: TK-10 renal
[55] = test system: U251 CNS
[56] = test system: UACC-257 melanoma
[57] = test system: UACC-62 melanoma
[58] = test system: UO-31 renal

SMILES: C=CC(=O)Nc1cc(Nc2ncc(C(=O)OC(C)C)c(-c3cn(C)c4ccccc34)n2)c(OC)cc1N(C)CCN(C)C
- GI50 [1]: 3.15 µM
- TGI [1]: 12.9 µM
- GI50 [2]: 0.483 µM
- TGI [2]: 7.63 µM
- GI50 [3]: 2.89 µM
- TGI [3]: 21.5 µM
- GI50 [4]: 0.0218 µM
- TGI [4]: 12.1 µM
- GI50 [5]: 7.41 µM
- TGI [5]: 21.4 µM
- GI50 [6]: 1.32 µM
- TGI [6]: 9.32 µM
- GI50 [7]: 3.18 µM
- TGI [7]: 17.8 µM
- GI50 [8]: 3.2 µM
- TGI [8]: > 22.2 µM
- GI50 [9]: 1.19 µM
- TGI [9]: 17.6 µM
- GI50 [10]: 0.0181 µM
- TGI [10]: 13.6 µM
- GI50 [11]: 2.3 µM
- TGI [11]: 7.75 µM
- GI50 [12]: 3.46 µM
- TGI [12]: 20 µM
- GI50 [13]: 1.79 µM
- TGI [13]: 5.05 µM
- GI50 [14]: 1.47 µM
- TGI [14]: 3.7 µM
- GI50 [15]: 7.13 µM
- TGI [15]: 22.8 µM
- GI50 [16]: 2.02 µM
- TGI [16]: 10.1 µM
- GI50 [17]: 6.43 µM
- TGI [17]: 21.5 µM
- GI50 [18]: 2.32 µM
- TGI [18]: 5.99 µM
- GI50 [19]: 0.399 µM
- TGI [19]: 3.12 µM
- GI50 [20]: 2.22 µM
- TGI [20]: > 23.4 µM
- GI50 [21]: 5.85 µM
- TGI [21]: 13.9 µM
- GI50 [22]: 1.76 µM
- TGI [22]: 3.53 µM
- GI50 [23]: 1.87 µM
- TGI [23]: 3.74 µM
- GI50 [24]: 1.69 µM
- TGI [24]: 3.24 µM
- GI50 [25]: 2.12 µM
- TGI [25]: 7.62 µM
- GI50 [26]: 2.66 µM
- TGI [26]: 8.26 µM
- GI50 [27]: 3 µM
- TGI [27]: 7.6 µM
- GI50 [28]: 2.9 µM
- TGI [28]: 11.4 µM
- GI50 [29]: 7.45 µM
- TGI [29]: 29.5 µM
- GI50 [30]: 9.02 µM
- TGI [30]: 25.3 µM
- GI50 [31]: 6.57 µM
- TGI [31]: 14.8 µM
- GI50 [32]: 0.02 µM
- TGI [32]: 5.74 µM
- GI50 [33]: 2.3 µM
- TGI [33]: 17.7 µM
- GI50 [34]: 2.58 µM
- TGI [34]: 12.3 µM
- GI50 [35]: 4.97 µM
- TGI [35]: 21.3 µM
- GI50 [36]: 2.72 µM
- TGI [36]: 18.1 µM
- GI50 [37]: 4.85 µM
- TGI [37]: 25 µM
- GI50 [38]: 3.19 µM
- TGI [38]: 9.54 µM
- GI50 [39]: 2.86 µM
- TGI [39]: 14.6 µM
- GI50 [40]: 1.86 µM
- TGI [40]: 6.62 µM
- GI50 [41]: 6.88 µM
- TGI [41]: 24.1 µM
- GI50 [42]: 5.11 µM
- TGI [42]: 10.6 µM
- GI50 [43]: 3.1 µM
- TGI [43]: 9.45 µM
- GI50 [44]: 4.3 µM
- TGI [44]: 11 µM
- GI50 [45]: 2.43 µM
- TGI [45]: 6.55 µM
- GI50 [46]: 1.78 µM
- TGI [46]: 3.21 µM
- GI50 [47]: < 0.01 µM
- TGI [47]: 16.7 µM
- GI50 [48]: 3.02 µM
- TGI [48]: 15.4 µM
- GI50 [49]: 6.8 µM
- TGI [49]: 22.4 µM
- GI50 [50]: 1.93 µM
- TGI [50]: 10.3 µM
- GI50 [51]: 3.04 µM
- TGI [51]: > 33.7 µM
- GI50 [52]: 3.25 µM
- TGI [52]: 8.88 µM
- GI50 [53]: 0.396 µM
- TGI [53]: 14 µM
- GI50 [54]: < 0.01 µM
- TGI [54]: 5.19 µM
- GI50 [55]: 3.98 µM
- TGI [55]: 12.2 µM
- GI50 [56]: 1.8 µM
- TGI [56]: 3.71 µM
- GI50 [57]: 2.34 µM
- TGI [57]: 7 µM
- GI50 [58]: 0.442 µM
- TGI [58]: 12.9 µM

SMILES: O=C(Nc1ccc(-n2ccc3c(NC(=O)c4ccccc4)nccc32)cc1)c1ccc(Cl)c(C(F)(F)F)c1
- GI50 [1]: 0.606 µM
- TGI [1]: 9.93 µM
- GI50 [2]: 6.1 µM
- TGI [2]: 33.1 µM
- GI50 [3]: 0.318 µM
- TGI [3]: 8.45 µM
- GI50 [4]: 0.487 µM
- TGI [4]: 15.4 µM
- GI50 [5]: 6.5 µM
- TGI [5]: > 50 µM
- GI50 [6]: 0.305 µM
- TGI [6]: 11.8 µM
- GI50 [7]: 0.128 µM
- TGI [7]: 2.17 µM
- GI50 [8]: 1.83 µM
- TGI [8]: 11 µM
- GI50 [9]: 2.12 µM
- TGI [9]: 10.7 µM
- GI50 [10]: 9.59 µM
- TGI [10]: > 50 µM
- GI50 [11]: 1.6 µM
- TGI [11]: 10.4 µM
- GI50 [12]: 0.0824 µM
- TGI [12]: 0.989 µM
- GI50 [13]: 0.0275 µM
- TGI [13]: 2.83 µM
- GI50 [14]: 0.687 µM
- TGI [14]: 9.78 µM
- GI50 [15]: 3.4 µM
- TGI [15]: 13.2 µM
- GI50 [16]: 3.42 µM
- TGI [16]: > 42.2 µM
- GI50 [17]: 4.88 µM
- TGI [17]: 20 µM
- GI50 [18]: 0.183 µM
- TGI [18]: 6.31 µM
- GI50 [19]: 1.55 µM
- TGI [19]: 15.3 µM
- GI50 [20]: 0.213 µM
- TGI [20]: > 17.2 µM
- GI50 [21]: 0.351 µM
- TGI [21]: 6.26 µM
- GI50 [22]: 0.112 µM
- TGI [22]: 3.29 µM
- GI50 [23]: 1.92 µM
- TGI [23]: 10.7 µM
- GI50 [24]: 4.13 µM
- TGI [24]: 14.7 µM
- GI50 [25]: 0.288 µM
- TGI [25]: 1.24 µM
- GI50 [26]: 5.09 µM
- TGI [26]: 15 µM
- GI50 [27]: 0.674 µM
- TGI [27]: 6.52 µM
- GI50 [28]: 0.351 µM
- TGI [28]: > 20.7 µM
- GI50 [29]: 6.17 µM
- TGI [29]: > 50 µM
- GI50 [30]: 7.16 µM
- TGI [30]: > 32.9 µM
- GI50 [31]: 0.0442 µM
- TGI [31]: 1.2 µM
- GI50 [32]: 0.811 µM
- TGI [32]: 9.59 µM
- GI50 [33]: 0.96 µM
- TGI [33]: 15.2 µM
- GI50 [34]: 1.35 µM
- TGI [34]: 10 µM
- GI50 [35]: 1.61 µM
- TGI [35]: 8.55 µM
- GI50 [36]: 3.84 µM
- TGI [36]: 27.3 µM
- GI50 [37]: 0.528 µM
- TGI [37]: 15.9 µM
- GI50 [38]: 2.56 µM
- TGI [38]: 24.8 µM
- GI50 [39]: 0.231 µM
- TGI [39]: 5.54 µM
- GI50 [40]: 1.01 µM
- TGI [40]: 9.64 µM
- GI50 [41]: 1.08 µM
- TGI [41]: 11.9 µM
- GI50 [42]: 0.293 µM
- TGI [42]: 10 µM
- GI50 [43]: 0.273 µM
- TGI [43]: 14.4 µM
- GI50 [44]: 6.16 µM
- TGI [44]: 31.6 µM
- GI50 [45]: 4.99 µM
- TGI [45]: 14.1 µM
- GI50 [46]: 0.132 µM
- TGI [46]: 8.67 µM
- GI50 [47]: 1.18 µM
- TGI [47]: 20.7 µM
- GI50 [48]: 2.25 µM
- TGI [48]: 18.3 µM
- GI50 [49]: 1.18 µM
- TGI [49]: 13.1 µM
- GI50 [50]: 0.625 µM
- TGI [50]: 16.5 µM
- GI50 [51]: 0.0545 µM
- TGI [51]: > 12.7 µM
- GI50 [52]: 0.335 µM
- TGI [52]: 1.44 µM
- GI50 [53]: 6.2 µM
- TGI [53]: 20.4 µM
- GI50 [54]: 5.38 µM
- TGI [54]: 13.5 µM
- GI50 [55]: 0.095 µM
- TGI [55]: 5.3 µM
- GI50 [56]: 6.73 µM
- TGI [56]: 27.2 µM
- GI50 [57]: 0.576 µM
- TGI [57]: 9.79 µM
- GI50 [58]: 2.86 µM
- TGI [58]: > 50 µM
